Measurements taken from the RepoRT retention time repository (doi:10.1021/acs.jafc.0c00879).

Assay: RP, Waters ACQUITY UPLC HSS T3, 150 × 2.1 mm, 1.8 µm, 40 °C, 0.28 mL/min, estimated dead time 1.2 min; A: water + 0.1% formic acid; B: methanol + 0.1% formic acid; gradient (min/%B) 0/0 1/0 3/10 18/40 21/100 25.5/100
Conditions: stereoisomer not certain

O=C(O)C1CCCN1 (stereo not drawn)
LC retention time: 1.49 min

O=C(O)C1OC(Oc2c(-c3cc(O)c(O)c(O)c3)oc3cc(O)cc(O)c3c2=O)C(O)C(O)C1O (stereo not drawn)
LC retention time: 16.6 min

CC(C)(CO)C(O)C(=O)NCCC(=O)O (stereo not drawn)
LC retention time: 7.04 min

O=c1c(O)c(-c2ccc(O)cc2)oc2cc(O)cc(O)c12
LC retention time: 21.2 min

OCC1OC(Oc2cc3c(O)cc(O)cc3[o+]c2-c2cc(O)c(O)c(O)c2)C(O)C(O)C1O (stereo not drawn)
LC retention time: 11.3 min

CCOC(=O)C=Cc1ccc(O)c(O)c1
LC retention time: 20.7 min

O=c1cc2oc(-c3ccc(O)c(O)c3)c(OC3OC(COC(=[OH+])C=Cc4ccc(O)cc4)C(O)C(O)C3O)cc-2c(O)c1 (stereo not drawn)
LC retention time: 20.2 min

COc1cc(-c2[o+]c3cc(O)cc(O)c3cc2OC2OC(COC(C)=O)C(O)C(O)C2O)ccc1O (stereo not drawn)
LC retention time: 19.5 min

COc1cc(-c2oc3cc(=[OH+])cc4occc(c2OC2OC(CO)C(O)C(O)C2O)c43)cc(OC)c1O (stereo not drawn)
LC retention time: 17.7 min

CC(C)C(N)C(=O)O (stereo not drawn)
LC retention time: 2.07 min

COc1cc(-c2[o+]c3cc(O)cc(O)c3cc2OC2OC(CO)C(O)C(O)C2O)cc(OC)c1O (stereo not drawn)
LC retention time: 14.8 min

COc1cc(C=CC(=O)OC(C(=O)O)C(O)C(=O)O)ccc1O (stereo not drawn)
LC retention time: 10.9 min

Oc1cc(O)c2c(c1)OC1(c3ccc(O)c(O)c3)Oc3cc(O)c4c(c3C2C1O)OC(c1ccc(O)c(O)c1)C(O)C4 (stereo not drawn)
LC retention time: 8.34 min

CC(=O)OCC1OC(Oc2cc3c(O)cc(O)cc3[o+]c2-c2cc(O)c(O)c(O)c2)C(O)C(O)C1O (stereo not drawn)
LC retention time: 16.9 min

COc1cc(-c2[o+]c3cc(O)cc(O)c3cc2OC2OC(COC(=O)C=Cc3ccc(O)cc3)C(O)C(O)C2O)cc(O)c1O (stereo not drawn)
LC retention time: 20.2 min

COc1cc(-c2[o+]c3cc(O)cc(O)c3cc2OC2OC(CO)C(O)C(O)C2O)ccc1O (stereo not drawn)
LC retention time: 14.6 min

CC(C=CC1(O)C(C)=CC(=O)CC1(C)C)=CC(=O)O (stereo not drawn)
LC retention time: 20.6 min

COc1cc(-c2[o+]c3cc(O)cc(O)c3cc2OC2OC(COC(C)=O)C(O)C(O)C2O)cc(OC)c1O (stereo not drawn)
LC retention time: 19.6 min

COc1cc(-c2[o+]c3cc(O)cc(O)c3cc2OC2OC(CO)C(O)C(O)C2O)cc(O)c1O (stereo not drawn)
LC retention time: 13.3 min

COc1cc(-c2[o+]c3cc(O)cc(O)c3cc2OC2OC(COC(=O)C=Cc3ccc(O)cc3)C(O)C(O)C2O)cc(OC)c1O (stereo not drawn)
LC retention time: 20.3 min

O=C(C=Cc1ccc(O)cc1)OCC1OC(Oc2cc3c(O)cc(O)cc3[o+]c2-c2cc(O)c(O)c(O)c2)C(O)C(O)C1O (stereo not drawn)
LC retention time: 20 min

NC(CCC(=O)NC(CS)C(=O)NCC(=O)O)C(=O)O (stereo not drawn)
LC retention time: 2.46 min

Cc1cc2nc3c(=O)[nH]c(=O)nc-3n(CC(O)C(O)C(O)CO)c2cc1C (stereo not drawn)
LC retention time: 14.6 min

COc1cc(-c2oc3cc(O)cc(O)c3c(=O)c2OC2OC(CO)C(O)C(O)C2O)cc(O)c1O (stereo not drawn)
LC retention time: 19.6 min

COc1cc(-c2oc3cc(O)cc(O)c3c(=O)c2O)cc(OC)c1O
LC retention time: 21.3 min

O=C(OC1Cc2c(O)cc(O)cc2OC1c1cc(O)c(O)c(O)c1)c1cc(O)c(O)c(O)c1 (stereo not drawn)
LC retention time: 15.2 min

O=C(C=Cc1ccc(O)c(O)c1)OC(C(=O)O)C(O)C(=O)O (stereo not drawn)
LC retention time: 7.71 min

COc1cc(-c2[o+]c3cc(O)cc(O)c3cc2OC2OC(COC(=O)C=Cc3ccc(O)cc3)C(O)C(O)C2O)ccc1O (stereo not drawn)
LC retention time: 20.4 min

COc1cc(-c2oc3cc(O)cc(O)c3c(=O)c2O)ccc1O
LC retention time: 21.2 min

NC(Cc1ccccc1)C(=O)O (stereo not drawn)
LC retention time: 5.95 min

O=c1[nH]c(=O)c2[nH]cnc2[nH]1
LC retention time: 3.94 min

O=C(OC1Cc2c(O)cc(O)cc2OC1c1ccc(O)c(O)c1)c1cc(O)c(O)c(O)c1 (stereo not drawn)
LC retention time: 14.4 min

CC(C)CC(N)C(=O)O (stereo not drawn)
LC retention time: 4.21 min

COc1cc(-c2oc3cc(=O)cc4oc(O)c(C=[OH+])c(c2OC2OC(CO)C(O)C(O)C2O)c43)cc(OC)c1O (stereo not drawn)
LC retention time: 18.6 min

COc1cc(-c2oc3cc(O)cc(O)c3c(=O)c2OC2OC(CO)C(O)C(O)C2O)ccc1O (stereo not drawn)
LC retention time: 20.3 min

O=C1c2c(O)cc(O)cc2OC(c2ccc(O)cc2)C1O (stereo not drawn)
LC retention time: 18.6 min

O=C(O)c1cc(O)c(O)c(O)c1
LC retention time: 6.83 min

O=c1c(OC2OC(CO)C(O)C(O)C2O)c(-c2ccc(O)cc2)oc2cc(O)cc(O)c12 (stereo not drawn)
LC retention time: 20.2 min

O=C(O)C(O)Cc1c[nH]c2ccccc12 (stereo not drawn)
LC retention time: 15.3 min

CCOC(=O)c1cc(O)c(O)c(O)c1
LC retention time: 14.2 min

COc1cc(-c2[o+]c3cc(O)cc(O)c3cc2OC2OC(COC(C)=O)C(O)C(O)C2O)cc(O)c1O (stereo not drawn)
LC retention time: 18.4 min

O=c1c(OC2OC(CO)C(O)C(O)C2O)c(-c2cc(O)c(O)c(O)c2)oc2cc(O)cc(O)c12 (stereo not drawn)
LC retention time: 17 min

Oc1ccc(C=Cc2cc(O)cc(O)c2)cc1
LC retention time: 20.4 min

NC(Cc1ccc(O)cc1)C(=O)O (stereo not drawn)
LC retention time: 4.05 min

NC(Cc1c[nH]c2ccccc12)C(=O)O (stereo not drawn)
LC retention time: 8.26 min

CC(=O)OCC1OC(Oc2cc3c(O)cc(O)cc3[o+]c2-c2ccc(O)c(O)c2)C(O)C(O)C1O (stereo not drawn)
LC retention time: 18.1 min

O=C1c2c(O)cc(O)cc2OC(c2ccc(O)c(OC3OC(C(=O)O)C(O)C(O)C3O)c2)C1O (stereo not drawn)
LC retention time: 19 min

O=C(O)C1OC(Oc2c(-c3ccc(O)cc3)oc3cc(O)cc(O)c3c2=O)C(O)C(O)C1O (stereo not drawn)
LC retention time: 20.2 min

O=c1c(O)c(-c2ccc(O)c(O)c2)oc2cc(O)cc(O)c12
LC retention time: 20.8 min

COc1cc(-c2oc3cc(O)cc(O)c3c(=O)c2OC2OC(CO)C(O)C(O)C2O)cc(OC)c1O (stereo not drawn)
LC retention time: 20.4 min

O=S(=O)(O)c1[nH]c2ccccc2c1CCO
LC retention time: 10.5 min

COc1cc(-c2oc3cc(O)cc(O)c3c(=O)c2O)cc(O)c1O
LC retention time: 20.9 min

O=c1oc2c(O)c(O)cc3c(=O)oc4c(O)c(O)cc1c4c23
LC retention time: 19.8 min
